Reference: US20090131468A1, “Bis-(Sulfonylamino) Derivatives in Therapy 065” (AstraZeneca AB, priority 2007, published 2009)

These molecules were tested against T1, human mPGES-1 (Homo sapiens, UniProt O14684) (assay: Microsomal prostaglandin E synthase biochemical assay). Conditions: microsome preparation containing human mPGES-1; PGH2 10.8 μM, GSH 2.5 mM, pH 6.8; PGE2 quantified by HTRF; average of at least n=2.
T1 sequence (O14684 1-152): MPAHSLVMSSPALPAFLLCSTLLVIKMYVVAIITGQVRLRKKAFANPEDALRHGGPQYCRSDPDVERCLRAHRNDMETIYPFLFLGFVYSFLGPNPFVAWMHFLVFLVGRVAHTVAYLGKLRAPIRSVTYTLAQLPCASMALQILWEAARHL
In short: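 Human mPGES-1 microsomes (from IL-1β-stimulated A549 cells or Sf9 cells expressing human mPGES-1) were pre-incubated 15 min with compound in potassium phosphate buffer pH 6.8 with GSH. PGH2 was then added, and the reaction was stopped after one minute with acidic ferric chloride/citrate. PGE2 was read by HTRF, and IC50 was taken from control-normalised activity.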

Going from `NS(=O)(=O)c1ccccc1S(=O)(=O)NC(=O)c1ccc(C#CC2CCCC2)c(CO)c1` [Example 98, 4-(Cyclopentylethynyl)-3-(hydroxymethyl)-N-(2-sulfamoylphenylsulfonyl)benzamide] to `NS(=O)(=O)c1ccccc1S(=O)(=O)NC(=O)c1ccc(C#CC2CCCCC2)c(CO)c1` [Example 101, 4-(Cyclohexylethynyl)-3-(hydroxymethyl)-N-(2-sulfamoylphenylsulfonyl)benzamide], the IC50 falls from 110 nM to 48 nM (2.3-fold).

Compared with `NS(=O)(=O)c1ccccc1S(=O)(=O)NC(=O)c1ccc(Cl)cc1Cc1ccccc1` [Example 24, 2-Benzyl-4-chloro-N-(2-sulfamoylphenyl)sulfonyl-benzamide], `NS(=O)(=O)c1ccccc1S(=O)(=O)NC(=O)c1ccc(C#Cc2ccccc2)c(CO)c1` [Example 100, 3-(Hydroxymethyl)-4-(phenylethynyl)-N-(2-sulfamoylphenylsulfonyl)benzamide] is 77-fold lower in IC50: 5400 nM for the first, 70 nM for the second.

Going from `NS(=O)(=O)c1cc(CO)ccc1S(=O)(=O)NC(=O)c1ccc(-c2cc3ccccc3o2)cc1` [Example 161, 4-(Benzofuran-2-yl)-N-(4-(hydroxymethyl)-2-sulfamoylphenylsulfonyl)benzamide] to `COc1cc(-c2cc3ccccc3o2)ccc1C(=O)NS(=O)(=O)c1ccccc1S(N)(=O)=O` [Example 48, 4-(Benzofuran-2-yl)-2-methoxy-N-(2-sulfamoylphenylsulfonyl)benzamide], the IC50 falls from 320 nM to 150 nM (2.1-fold).

Compared with `NS(=O)(=O)c1ccccc1S(=O)(=O)NC(=O)c1ccc(Br)cc1O` [Example 82, 4-Bromo-2-hydroxy-N-(2-sulfamoylphenylsulfonyl)benzamide], `NS(=O)(=O)c1ccccc1S(=O)(=O)NC(=O)c1ccc(Br)cc1F` [Example 14, 4-Bromo-2-fluoro-N-(2-sulfamoylphenyl)sulfonyl-benzamide] is 2.6-fold higher in IC50: 540 nM for the first, 1400 nM for the second. The first is the more potent here.

Going from `Cc1nc(-c2ccc(Cl)cc2)sc1C(=O)NS(=O)(=O)c1ccccc1S(N)(=O)=O` [Example 28, 2-(4-Chlorophenyl)-4-methyl-N-(2-sulfamoylphenyl)sulfonyl-1,3-thiazole-5-carboxamide] to `Cc1nc(-c2cccc(Cl)c2)sc1C(=O)NS(=O)(=O)c1ccccc1S(N)(=O)=O` [Example 42, 2-(3-Chlorophenyl)-4-methyl-N-(2-sulfamoylphenyl)sulfonyl-1,3-thiazole-5-carboxamide], the IC50 rises from 44 nM to 110 nM (2.5-fold). The first is the more potent here.

Going from `CC(C)Oc1cc(C(=O)NS(=O)(=O)c2ccccc2S(N)(=O)=O)cnc1C#CC1CCCC1` [Example 143, 6-(Cyclopentylethynyl)-5-isopropoxy-N-(2-sulfamoylphenylsulfonyl)nicotinamide] to `CC(C)Oc1cc(C(=O)NS(=O)(=O)c2ccccc2S(N)(=O)=O)cnc1C#CC1CC1` [Example 142, 6-(cyclopropylethynyl)-5-isopropoxy-N-(2-sulfamoylphenylsulfonyl)nicotinamide], the IC50 rises from 14 nM to 49 nM (3.5-fold).

Going from `CC(C)(O)c1cc2cc(C(=O)NS(=O)(=O)c3ccccc3S(N)(=O)=O)ccc2o1` [Example 124, 2-(2-Hydroxypropan-2-yl)-N-(2-sulfamoylphenylsulfonyl)benzofuran-5-carboxamide] to `NS(=O)(=O)c1ccccc1S(=O)(=O)NC(=O)c1ccc2oc(-c3cccnc3)cc2c1` [Example 123, 2-(Pyridin-3-yl)-N-(2-sulfamoylphenylsulfonyl)benzofuran-5-carboxamide], the IC50 falls from 21000 nM to 2000 nM (10-fold). The second is the more potent here.

Going from `COc1c(C#CC(C)(C)C)ccc(C(=O)NS(=O)(=O)c2ccccc2S(N)(=O)=O)c1F` [Example 90, 4-(3,3-Dimethylbut-1-ynyl)-2-fluoro-3-methoxy-N-(2-sulfamoylphenylsulfonyl)-benzamide] to `CC(C)(C)C#Cc1ccc(C(=O)NS(=O)(=O)c2ccccc2S(N)(=O)=O)cc1F` [Example 73, 4-(3,3-Dimethylbut-1-ynyl)-3-fluoro-N-(2-sulfamoylphenylsulfonyl)benzamide], the IC50 falls from 260 nM to 60 nM (4.3-fold).

`COC(C)(C)CCOc1cc(C(=O)NS(=O)(=O)c2ccccc2S(N)(=O)=O)ccc1-c1cc2ccccc2o1` [Example 145, 4-(Benzofuran-2-yl)-3-(3-methoxy-3-methylbutoxy)-N-(2-sulfamoylphenylsulfonyl)-benzamide] and `COc1ccccc1-c1cc2cc(C(=O)NS(=O)(=O)c3ccccc3S(N)(=O)=O)ccc2o1` [Example 120, 2-(2-Methoxyphenyl)-N-(2-sulfamoylphenylsulfonyl)benzofuran-5-carboxamide] are within 1.5-fold of each other in IC50: 23 nM for the first, 28 nM for the second.

First: COc1c(C#CC2CCCC2)ccc(C(=O)NS(=O)(=O)c2ccccc2S(N)(=O)=O)c1F [Example 86, 4-(Cyclopentylethynyl)-2-fluoro-3-methoxy-N-(2-sulfamoylphenylsulfonyl)benzamide]
Second: NS(=O)(=O)c1ccccc1S(=O)(=O)NC(=O)c1ccc(C#CC2CCCC2)cc1 [Example 65, 4-(Cyclopentylethynyl)-N-(2-sulfamoylphenylsulfonyl)benzamide]
The IC50 of the first is 5.1-fold higher: 71 nM for the first, 14 nM for the second. The second is the more potent here.

Compared with `CC(C)(C)c1ccc(C(=O)NS(=O)(=O)c2ccccc2S(N)(=O)=O)cc1` [Example 32, N-(2-Sulfamoylphenyl)sulfonyl-4-tert-butyl-benzamide], `CC(C)C#Cc1ccc(C(=O)NS(=O)(=O)c2ccccc2S(N)(=O)=O)cc1` [Example 113, 4-(3-Methylbut-1-ynyl)-N-(2-sulfamoylphenylsulfonyl)benzamide] is 19-fold lower in IC50: 1500 nM for the first, 80 nM for the second.

Going from `CCC(O)(C#Cc1ccc(C(=O)NS(=O)(=O)c2ccccc2S(N)(=O)=O)cc1)CC` [Example 56, 4-(3-Ethyl-3-hydroxypent-1-ynyl)-N-(2-sulfamoylphenylsulfonyl)benzamide] to `NS(=O)(=O)c1ccccc1S(=O)(=O)NC(=O)c1ccc(C#Cc2ccccc2)cc1` [Example 72, 4-(Phenylethynyl)-N-(2-sulfamoylphenylsulfonyl)benzamide], the IC50 falls from 2300 nM to 10 nM (230-fold).

Going from `N#Cc1cc(C(=O)NS(=O)(=O)c2ccccc2S(N)(=O)=O)ccc1-c1cc2ccccc2o1` [Example 80, 4-(Benzofuran-2-yl)-3-cyano-N-(2-sulfamoylphenylsulfonyl)benzamide] to `NS(=O)(=O)c1ccccc1S(=O)(=O)NC(=O)c1cnc(-c2cc3ccccc3o2)c(Cl)c1` [Example 147, 6-(Benzofuran-2-yl)-5-chloro-N-(2-sulfamoylphenylsulfonyl)nicotinamide], the IC50 falls from 130 nM to 54 nM (2.4-fold). The second is the more potent here.

Compared with `NS(=O)(=O)c1ccccc1S(=O)(=O)NC(=O)c1ccc(-c2nc3ccccc3s2)cc1` [Example 5, 4-Benzothiazol-2-yl-N-(2-sulfamoylphenyl)sulfonyl-benzamide], `NS(=O)(=O)c1ccccc1S(=O)(=O)NC(=O)c1ccc(-c2cc3ccccc3s2)cc1` [Example 4, 4-Benzothiophen-2-yl-N-(2-sulfamoylphenyl)sulfonyl-benzamide] is 1.7-fold higher in IC50: 23 nM for the first, 40 nM for the second.

Compared with `COc1cc(C(=O)NS(=O)(=O)c2ccccc2S(N)(=O)=O)cnc1C#Cc1ccc(C(F)(F)F)cc1` [Example 139, 5-Methoxy-N-(2-sulfamoylphenylsulfonyl)-6-((4-(trifluoromethyl)phenyl)-ethynyl)nicotinamide], `NS(=O)(=O)c1ccccc1S(=O)(=O)NC(=O)c1cnc(C#Cc2ccc(Cl)cc2)nc1` [Example 102, 2-((4-chlorophenyl)ethynyl)-N-(2-sulfamoylphenylsulfonyl)pyrimidine-5-carboxamide] is 7.8-fold higher in IC50: 6.8 nM for the first, 53 nM for the second.

Compared with `COc1cc(C(=O)NS(=O)(=O)c2ccccc2S(N)(=O)=O)cnc1C#CC1CCCCC1` [Example 138, 6-(Cyclohexylethynyl)-5-methoxy-N-(2-sulfamoylphenylsulfonyl)nicotinamide], `NS(=O)(=O)c1ccccc1S(=O)(=O)NC(=O)c1ccc(C#CC2CC2)c(OCCC(F)(F)F)c1` [Example 160, 4-(Cyclopropylethynyl)-N-(2-sulfamoylphenylsulfonyl)-3-(3,3,3-trifluoropropoxy)-benzamide] is 2.7-fold higher in IC50: 12 nM for the first, 32 nM for the second. The first is the more potent here.

Going from `COC(C)(C)C#Cc1ccc(C(=O)NS(=O)(=O)c2ccccc2S(N)(=O)=O)cc1O` [Example 115, 3-Hydroxy-4-(3-methoxy-3-methylbut-1-ynyl)-N-(2-sulfamoylphenylsulfonyl)-benzamide] to `CC(C)C#Cc1ccc(C(=O)NS(=O)(=O)c2ccccc2S(N)(=O)=O)cn1` [Example 99, 6-(3-Methylbut-1-ynyl)-N-(2-sulfamoylphenylsulfonyl)nicotinamide], the IC50 falls from 4300 nM to 400 nM (11-fold). The second is the more potent here.

`NS(=O)(=O)c1ccccc1S(=O)(=O)NC(=O)c1ccc(C#Cc2cccnc2)nc1` [Example 95, 6-(Pyridin-3-ylethynyl)-N-(2-sulfamoylphenylsulfonyl)nicotinamide] and `NS(=O)(=O)c1ccccc1S(=O)(=O)NC(=O)c1csc2ccccc12` [Example 40, N-(2-Sulfamoylphenyl)sulfonylbenzothiophene-3-carboxamide] are within 1.5-fold of each other in IC50: 2000 nM for the first, 2200 nM for the second.

Compared with `NS(=O)(=O)c1ccccc1S(=O)(=O)NC(=O)c1ccc(Br)cc1Cl` [Example 11, 4-Bromo-2-chloro-N-(2-sulfamoylphenyl)sulfonyl-benzamide], `CCCc1c(C(=O)NS(=O)(=O)c2ccccc2S(N)(=O)=O)cnn1-c1cc(Cl)cc(Cl)c1` [Example 38, 1-(3,5-Dichlorophenyl)-5-propyl-N-(2-sulfamoylphenyl)sulfonyl-pyrazole-4-carboxamide] is 3.7-fold lower in IC50: 5500 nM for the first, 1500 nM for the second.

Going from `NS(=O)(=O)c1ccccc1S(=O)(=O)NC(=O)c1ccc(-c2cccc(C(F)(F)F)c2)o1` [Example 37, N-(2-Sulfamoylphenyl)sulfonyl-5-[3-(trifluoromethyl)phenyl]furan-2-carboxamide] to `NS(=O)(=O)c1ccccc1S(=O)(=O)NC(=O)c1ccc(C#CC2CC2)c2c1OC(F)(F)O2` [Example 159, 7-(Cyclopropylethynyl)-2,2-difluoro-N-(2-sulfamoylphenylsulfonyl)-benzo[d][1,3]dioxole-4-carboxamide], the IC50 falls from 1100 nM to 63 nM (17-fold).
